One assay addresses T1, BRAF (V600E) kinase (Homo sapiens, UniProt P15056, V600E).
T1 construct: Flag (N); made in house; host or cells: SF-21 insect cells, recombinant baculovirus BAC-V600E
The experiment in a line: Determination of BRAF (V600E) kinase inhibitory activity. Type of assay: biochemical. The conditions noted are these: 1.0 μM test compound; BRAF (V600E) enzyme, GST-MEK1 (K96R) substrate, [γ-32P]ATP; read-out: Inhibitory rate (%) at 1.0 μM. Here is the method:
Human BRAF gene was cloned by PCR using human Testis cDNA library (Clontech) as a template. The primer used for PCR was prepared from base sequence (Genbank Accession No.: NM_004333) information of BRAF gene by adding a base sequence encoding flag peptide and a recognition sequence of the restriction enzyme to area encoding the BRAF kinase domain region, so that the protein contains an N-terminal. Flag. The primer base sequence is shown below.
The PCR reaction was conducted using Pyrobest (Takara Shuzo Co., Ltd). The obtained PCR product was electrophoresed on agarose gel (1%), the DNA fragment amplified by PCR was recovered from the gel, and then digested with restriction enzymes EcoRI and SalI. The DNA treated with the restriction enzymes was electrophoresed on agarose gel (1%), and the obtained DNA fragment was recovered. The recovered DNA fragment was ligated to plasmid pFASTBAC1 (Invitrogen) digested with restriction enzymes EcoRI and SalI to give expression plasmid pFB-BRAF, and the base sequence of the insert fragment was confirmed. In addition, mutation was introduced into V600E using a Quick change Site Directed Mutagenesis kit (Stratagene). The base sequences of the primers used are shown in the following.
The obtained plasmid was sequenced to confirm the introduction of mutation into V600E. The DNA was digested with restriction enzymes EcoRI and SalI, DNA treated with the restriction enzymes was electrophoresed on agarose gel (1%), and the obtained DNA fragment was recovered. The recovered DNA fragment was ligated to plasmid pFASTBAC1 (Invitrogen) digested with restriction enzymes EcoRI and SalI to give expression plasmid pFB-V600E.
Using BAC-TO-BAC Baculovirus Expression System (Invitrogen), virus stock BAC-V600E of recombinant baculovirus was prepared.
SF-21 cells were sown at 1×10^6 cells/mL to Sf-900II SFM medium (1 L, Invitrogen) containing 10% fetal bovine serum (Trace), 50 mg/L Gentamicin (Invitrogen) and 0.1% Pluronic F-68 (Invitrogen), and shaking culture was performed using a 2 L volume Erlenmeyer flask at 27° C., 100 rpm. After culturing for 24 hr, recombinant baculovirus BAC-V600E (13.4 mL) was added to the mixture, and the mixture was further cultured for 3 days. The culture medium was centrifuged at 2,000 rpm for 5 min to give virus-infected cells. The infected cells were washed with a phosphate buffered saline (Invitrogen), centrifuged under the same conditions, and the cells were preserved at −80° C. The cryopreserved cells were thawed in ice, suspended in buffer A (50 mM Tris buffer (30 mL, pH 7.4) containing 20% glycerol, 0.15 M NaCl) supplemented with Complete Protease Inhibitor (Boehringer), and ruptured 3 times with a Polytron homogenizer (Kinematica) at 20,000 rpm for 30 sec. The ruptured medium was clarified by centrifugation at 40,000 rpm for 30 min and filtered with a 0.45 μm filter. The filtrate was passed through a column packed with Anti-FLAG M2 Affinity Gel (4 mL, Sigma) at a flow rate of about 0.5 mL/min. The column was washed with buffer A, and eluted with buffer A containing 100 μg/mL of FLAG peptide. The buffer of this eluate was exchanged using NAP25 column (Amersham Bioscience) equilibrated with buffer A and the fractions were cryopreserved at −80° C.
A test compound (2.5 μL) dissolved in dimethyl sulfoxide (DMSO) was added to 37.5 μL of a reaction mixture (25 mM HEPES (pH 7.5), 10 mM magnesium acetate, 1 mM dithiothreitol) containing BRAF (V600E) enzyme (30 ng) and recombinant type protein GST-MEK1 (K96R) 250 ng, and the mixture was incubated at room temperature for 10 min. ATP solution (10 μL, 2.5 μM ATP, 0.1 μCi [γ-^32P]ATP) was added to the obtained mixture, and the mixture was reacted at room temperature for 20 min. The reaction was quenched by adding 50 μL of ice-cooled. 20% trichloroacetic acid (Wako Pure Chemical Industries, Ltd.) to the reaction mixture. […]

For assay [1], the system named is human colon cancer cell HT-29. The experiment in a line: Colon cancer cell HT-29 growth suppressive action in vitro. Type of assay: cell-based. The conditions noted are these: 72 h, HT-29 cells, 3 days culture, SRB staining of cell protein. The procedure: A cell suspension (100 μL, 3,000 cells/well) of human colon cancer cell HT-29 (purchased from ATCC) was plated in a 96-well plate, and the cells were cultured at 37° C. in a 5% carbon dioxide gas incubator. The next day, 2-fold serial dilution of each test compound solution (diluted from maximum concentration 20 μM) (100 μL) was added, and the cells were cultured for 3 days. The culture medium containing the test compound was removed, and the cells were washed with phosphate buffer (PBS). A 50% trichloroacetic acid solution was added to the final concentration of 10% (v/v), and the mixture was stood overnight at 4° C., whereby the cells were fixed to the plate. Then, a dye SRB 0.4% (w/v) solution (dissolved in 1% acetic acid) was added at 50 μl/well, whereby the cell protein was fixed and stained (Skehan et al., Journal Of National Cancer Institute, vol. 82, pp. 1107-1112, 1990). The cells were washed 3 times with 1% acetic acid solution (200 μL/well), and 100 μL of an extract (10 mM Tris buffer) was added to extract the dye. The absorbance at an absorption wavelength […] was measured, and cell amount was measured as a protein amount. Taking the protein amount of the control group free of the test compound solution as 100%, the proportion of the residual protein amount of each treatment group was determined and the concentration of the compound necessary for suppressing the residual cell amount to 50% of the control (IC50 value) was calculated.
(In SRB staining, fixed cells bind dye roughly in proportion to their protein.)

The subject of assay [2] is Colon Cancer Cell HT-29 Intracellular MEK Phosphorylation. The experiment in a line: Colon cancer cell HT-29 intracellular MEK phosphorylation inhibitory action in vitro. Type of assay: cell-based. The conditions noted are these: Homo sapiens; HT-29 cells, 2 hr treatment; phosphorylated MEK1/2 (Ser217/221) by Western blot. Here is the method:
A cell suspension (500 μL) of human colon cancer cell HT-29 was plated in a 48-well plate (100,000 cells/well), and the cells were cultured overnight at 37° C. in the presence of 5% CO2, treated with a test compound (250 μL/well) diluted in 3-fold dilution series and cultured for two more hours. After 2 hr, the culture medium containing the test compound was removed, and the cells were lysed with SDS sample buffer (100 μL/well) and heated at 95° C. for 5 min. Thereafter, the cells were applied to SDS-PAGE, and the protein was transferred onto Sequi-Blot™ PVDF Membrane (Bio-Rad) by the Western blot method. The cells were blocked with a block-Ace solution (Snow Brand Milk Products Co., Ltd) dissolved in phosphate buffer to 5% W/V, and reacted overnight with anti-phosphorylated MEK1/2 (Ser217/221) (Cell signaling #9121) diluted 1000-fold with phosphate buffer containing 0.4% block-Ace. The membrane was washed with phosphate buffer containing 0.1% Tween 20 (Wako Pure Chemical Industries, Ltd.), and reacted at room temperature for 1 hr with HRP labeled […] (Cell signaling #7074) diluted 1000-fold with phosphate buffer containing 0.4% block-Ace. The membrane was washed in the same manner as above, chemical luminescence of a phosphorylated MEK1/2 protein labeled with the antibody, which was caused by ECL-plus Detection Reagent (Amersham bioscience), was detected by Luminescent Image Analyzer LAS-1000 (FUJIFILM Corporation). Taking the luminescence of the control group free of the test compound as 100%, the concentration (IC50 value) of the compound necessary for inhibiting the residual luminescence to 50% of the control group was calculated.
In general terms: Immunoblotting shows a protein as a band on a membrane.

T1 sequence (P15056 457-717 V600E limits assumed): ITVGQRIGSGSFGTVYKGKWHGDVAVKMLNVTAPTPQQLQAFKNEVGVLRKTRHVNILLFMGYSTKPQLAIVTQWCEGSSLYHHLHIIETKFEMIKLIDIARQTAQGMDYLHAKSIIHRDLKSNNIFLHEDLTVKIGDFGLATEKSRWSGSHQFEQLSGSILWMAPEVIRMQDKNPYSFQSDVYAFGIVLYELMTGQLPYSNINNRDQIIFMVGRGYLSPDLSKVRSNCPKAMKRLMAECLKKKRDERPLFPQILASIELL

For the compound `N#CC1(c2cccc(C(=O)Nc3cccc(Oc4ccc5nc(NC(=O)C6CC6)sc5c4)c3)c2)CC1` [Example A1, 3-(1-cyanocyclopropyl)-N-[3-({2-[(cyclopropylcarbonyl)amino]-1,3-benzothiazol-6-yl}oxy)phenyl]benzamide], the inhibition at 1 µM on BRAF (V600E) kinase worked out at 98%.
In assay [1], `O=C(Nc1cccc(Oc2ccc3nc(NC(=O)C4CC4)sc3c2)c1)c1cccc(C(F)(F)F)c1` [Example A2, N-[3-({2-[(cyclopropylcarbonyl)amino]-1,3-benzothiazol-6-yl}oxy)phenyl]-3-(trifluoromethyl)benzamide] showed a half-maximal inhibitory concentration (IC50) of under 500 nM.
`Cc1ccc(Oc2ccc3nc(NC(=O)CO)sc3c2)cc1NC(=O)c1cccc(C2(C#N)CC2)c1` [Example A6, 3-(1-cyanocyclopropyl)-N-(5-{[2-(glycoloylamino)-1,3-benzothiazol-6-yl]oxy}-2-methylphenyl)benzamide]: on BRAF (V600E) kinase, the inhibition at 1 µM amounted to 99%.
In assay [2], `Cc1ccc(Oc2ccc3nc(NC(=O)C4CC4)sc3c2)cc1NC(=O)c1cccc(C(C)(C)C#N)c1` [Example A7, 3-(1-cyano-1-methylethyl)-N-[5-({2-[(cyclopropylcarbonyl)amino]-1,3-benzothiazol-6-yl}oxy)-2-methylphenyl]benzamide] displayed an IC50 of under 500 nM.
Same read-out and setting: the same measure for `Cc1ccc(Oc2ccc3nc(NC(=O)CO)sc3c2)cc1NC(=O)c1cccc(C(C)(C)C#N)c1` [Example A10, 3-(1-cyano-1-methylethyl)-N-(5-{[2-(glycoloylamino)-1,3-benzothiazol-6-yl]oxy}-2-methylphenyl)benzamide]: under 500 nM.
Compound `CN1CCN(CC(=O)Nc2nc3ccc(Oc4cccc(NC(=O)c5cccc(C(C)(C)C#N)c5)c4)cc3s2)CC1` [Example A13, 3-(1-cyano-1-methylethyl)-N-{3-[(2-{[(4-methylpiperazin-1-yl)acetyl]amino}-1,3-benzothiazol-6-yl)oxy]phenyl}benzamide] registered a half-inhibitory concentration (IC50) in assay [1] of under 500 nM.
In assay [2], `CC(C)(C#N)c1cccc(C(=O)Nc2cccc(Oc3ccc4nc(NC(=O)CO)sc4c3)c2)c1` [Example A14, 3-(1-cyano-1-methylethyl)-N-(3-{[2-(glycoloylamino)-1,3-benzothiazol-6-yl]oxy}phenyl)benzamide] returned an IC50 of under 500 nM.
Consider `N#CC1(c2cccc(C(=O)Nc3cccc(Oc4ccc5nc(NC(=O)c6cocn6)sc5c4)c3)c2)CC1` [Example A15, N-[6-(3-{[3-(1-cyanocyclopropyl)benzoyl]amino}phenoxy)-1,3-benzothiazol-2-yl]-1,3-oxazole-4-carboxamide], for which the inhibition at 1 µM on BRAF (V600E) kinase came to 100%.
For `CN1CCN(CC(=O)Nc2nc3ccc(Oc4cccc(NC(=O)c5cccc(C6(C#N)CC6)c5)c4)cc3s2)CC1` [Example A16, 3-(1-cyanocyclopropyl)-N-{3-[(2-{[(4-methylpiperazin-1-yl)acetyl]amino}-1,3-benzothiazol-6-yl)oxy]phenyl}benzamide], in assay [2], the IC50 was under 500 nM.
For `COc1ccc(NC(=O)c2cccc(C(C)(C)C#N)c2)cc1Oc1ccc2nc(NC(=O)C3CC3)sc2c1` [Example A21, 3-(1-cyano-1-methylethyl)-N-[3-({2-[(cyclopropylcarbonyl)amino]-1,3-benzothiazol-6-yl}oxy)-4-methoxyphenyl]benzamide], the IC50 in assay [2] is under 500 nM. The inhibition at 1 µM on BRAF (V600E) kinase was found to be 98%.
Turning to `O=C(Nc1ccc(C(F)(F)F)cc1)c1cccc(Oc2ccc3nc(NC(=O)C4CC4)sc3c2)c1` [Example A25, 3-({2-[(cyclopropylcarbonyl)amino]-1,3-benzothiazol-6-yl}oxy)-N-[4-(trifluoromethyl)phenyl]benzamide], the inhibition at 1 µM on BRAF (V600E) kinase turned out to be 100%.
Turning to `O=C(CO)Nc1nc2ccc(Oc3cccc(C(=O)Nc4ccc(C(F)(F)F)cc4)c3)cc2s1` [Example A26, 3-{[2-(glycoloylamino)-1,3-benzothiazol-6-yl]oxy}-N-[4-(trifluoromethyl)phenyl]benzamide], in assay [2], the IC50 was under 500 nM.
For the compound `O=C(Nc1cccc(C(F)(F)F)c1)c1cccc(Oc2ccc3nc(NC(=O)C4CC4)sc3c2)c1` [Example A29, 3-({2-[(cyclopropylcarbonyl)amino]-1,3-benzothiazol-6-yl}oxy)-N-[3-(trifluoromethyl)phenyl]benzamide], the inhibition at 1 µM on BRAF (V600E) kinase came to 100%.
Turning to `O=C(Nc1cccc(Oc2ccc3nc(NC(=O)C4CC4)oc3c2)c1)c1cccc(C(F)(F)F)c1` [Example B1, N-[3-({2-[(cyclopropylcarbonyl)amino]-1,3-benzooxazol-6-yl}oxy)phenyl]-3-(trifluoromethyl)benzamide], the inhibition at 1 µM at BRAF (V600E) kinase was 100%.
`CC(C)(C#N)c1cccc(C(=O)Nc2cccc(Oc3ccc4nc(NC(=O)C5CC5)oc4c3)c2)c1` [Example B3, 3-(1-cyano-1-methylethyl)-N-[3-({2-[(cyclopropylcarbonyl)amino]-1,3-benzooxazol-6-yl}oxy)phenyl]benzamide] yielded a concentration for half-maximal inhibition (IC50) in assay [2] of under 500 nM.
For the compound `O=C(Nc1cccc(Oc2ccc3nc(NC(=O)C4CC4)[nH]c3c2)c1)c1cccc(C(F)(F)F)c1` [Example C1, N-[3-({2-[(cyclopropylcarbonyl)amino]-1H-benzimidazol-6-yl}oxy)phenyl]-3-(trifluoromethyl)benzamide], the inhibition at 1 µM at BRAF (V600E) kinase stood at 99%.

In general, IC50 refers to the concentration needed to halve the response being measured. The low end stands for greater potency in that assay, the high end for weaker potency in that assay.

The values are drawn from patent publication US8324395B2, “Heterocyclic compound and use thereof” (Takeda Pharmaceutical Company Limited, priority 2007, dated 2012).
